Data published in patent US11286268B1, “EIF4E-inhibiting compounds and methods” (EFFECTOR THERAPEUTICS, INC., priority 2019, dated 2022).
Read-outs that look alike come from different tables or passages of the source.

Target: recombinant eIF4E (Homo sapiens (Human), UniProt P06730)
Assay: Fluorescence polarization competition assay for eIF4E binding potency
Procedure, shortened: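 Competitive displacement format: compounds compete with a fluorescent m7GDP tracer (20 nM) for 75 nM recombinant eIF4E. Incubation is 30 min at room temperature, protected from light, with 1% DMSO. Polarization read gives IC50 over eight 3-fold concentrations.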

[1] = fluorescence polarization competition, 75 nM recombinant eIF4E, 20 nM EDA-m7GDP-ATTO-550, IC50 class, read-out: elF4E FP
[2] = inhibition of eIF4E/EDA-m7GDP-ATTO-550 binding by 50%, Table 4B calculated values, read-out: IC50

Sequence of recombinant eIF4E (P06730 whole entry): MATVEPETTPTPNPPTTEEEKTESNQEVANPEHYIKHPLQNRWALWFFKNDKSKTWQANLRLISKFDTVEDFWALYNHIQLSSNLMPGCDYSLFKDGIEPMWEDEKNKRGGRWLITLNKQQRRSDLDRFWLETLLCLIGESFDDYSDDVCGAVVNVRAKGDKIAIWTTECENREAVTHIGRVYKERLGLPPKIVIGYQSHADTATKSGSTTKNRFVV

Compound | IC50 [1] [nM] | IC50 [2] [nM]
Cc1nc2cc(C(F)(F)F)cc(C#N)c2c(=O)n1CCOc1ccc(Cl)cc1-c1cccc2c(C(=O)O)c[nH]c12 [compound 322] | 50 to 1000 | 116
Cc1nc2cc(C(F)(F)F)cc(C#N)c2c(=O)n1CCOc1ccc(Cl)cc1-c1ccnc2c(C(=O)O)c[nH]c12 [compound 323] | 50 to 1000 | 82.6
Cc1nc2cc(C(F)(F)F)cc(C#N)c2c(=O)n1CCOc1ccc(Cl)cc1-c1coc2c(C(=O)O)ccnc12 [compound 324] | 50 to 1000 | 93.3
Cc1nc2cc(C(F)(F)F)cc(C#N)c2c(=O)n1CCOc1ccc(Cl)cc1-c1ccnc2c(C(=O)O)coc12 [compound 325] | 50 to 1000 | 52
Cc1nc2cc(C(F)(F)F)cc(C#N)c2c(=O)n1CCOc1ccc(Cl)cc1N1CCC(C(=O)O)CC1 [compound 326] | > 1000 | 1440
Cc1nc2cc(C(F)(F)F)cc(C#N)c2c(=O)n1CCOc1ccc(Cl)cc1N1CCC(CC(=O)O)CC1 [compound 328] | > 1000 | 1320
COc1cc(-c2cc(Cl)ccc2OCCn2c(C)nc3cc(C(F)(F)F)cc(C#N)c3c2=O)c2scc(C(=O)O)c2n1 [compound 329] | < 50 | 46.4
Cc1nc2cc(C(F)(F)F)cc(C#N)c2c(=O)n1CCOc1ccc(Cl)cc1-c1cc(=O)n(C)c2c(C(=O)O)csc12 [compound 332] | < 50 | 37.7
Cc1cc(-c2cc(Cl)ccc2OCCn2c(C)nc3cc(C(F)(F)F)cc(C#N)c3c2=O)c2scc(C(=O)O)c2c1F [compound 333] |  | 24.9
Cc1cc(-c2cc(Cl)ccc2OCCn2c(C)nc3cc4c(c(C#N)c3c2=O)CCNC4)c2scc(C(=O)O)c2n1 [compound 334] | < 50 | 10.4
Cc1cc(-c2cc(Cl)ccc2OCCn2c(C)nc3cc4c(c(C#N)c3c2=O)CN(C)CC4)c2scc(C(=O)O)c2n1 [compound 336] | < 50 | 27.9
Cc1cc(-c2cc(Cl)ccc2OCCn2c(C)nc3cc(C(F)(F)F)cnc3c2=O)c2scc(C(=O)O)c2n1 [compound 337] | < 50 | 25.7
Cc1cc(-c2cc(Cl)ccc2OCCn2c(C)nc3c(C4CC4)ncc(C#N)c3c2=O)c2scc(C(=O)O)c2n1 [compound 339] | < 50 | 26.8
Cc1cc(-c2cc(Cl)ccc2OCCn2c(C)nc3c(C(F)(F)F)ncc(C#N)c3c2=O)c2scc(C(=O)O)c2n1 [compound 340] | < 50 | 5.01
Cc1cc(-c2c(C(F)(F)F)cc3nc(C)n(CCOc4ccc(Cl)cc4-c4cc(C)nc5c(C(=O)O)csc45)c(=O)c3c2C#N)ccn1 [compound 341] | < 50 | 45
Cc1cc(-c2cc(Cl)ccc2OCCn2c(C)nc3cc(C(F)(F)F)c(-c4cncc(F)c4)c(C#N)c3c2=O)c2scc(C(=O)O)c2n1 [compound 342] | < 50 | 47.4
Cc1cc(-c2cc(Cl)ccc2OCCn2c(C)nc3cc(C(F)(F)F)c(-c4cnccc4F)c(C#N)c3c2=O)c2scc(C(=O)O)c2n1 [compound 343] | < 50 | 41.8
Cc1cc(-c2cc(Cl)ccc2OCCn2c(C)nc3cc(C(F)(F)F)c(-c4ccccc4CO)nc3c2=O)c2scc(C(=O)O)c2n1 [compound 346] | < 50 | 18.1

Compound | IC50 [1] [nM] | IC50 [2] [nM]
Cc1cc(-c2cc(Cl)ccc2OCCn2c(C)nc3cc(C(F)(F)F)c(-c4cnsc4)c(C#N)c3c2=O)c2scc(C(=O)O)c2n1 [compound 347] | < 50 | 32.1
Cc1ccc(-c2c(C(F)(F)F)cc3nc(C)n(CCOc4ccc(Cl)cc4-c4cc(C)nc5c(C(=O)O)csc45)c(=O)c3c2C#N)c(C)n1 [compound 349] | < 50 | 5.84
Cc1cc(C)c(-c2c(C(F)(F)F)cc3nc(C)n(CCOc4ccc(Cl)cc4-c4cc(C)nc5c(C(=O)O)csc45)c(=O)c3c2C#N)cn1 [compound 350] | < 50 | 14.2
Cc1nc2cc(C(F)(F)F)cc(C#N)c2c(=O)n1CCOc1ccc(Cl)cc1-c1ccnc2c(C(C)(C)O)csc12 [compound 352] | > 1000 | 1270
Cn1cc(CCOc2ccc(Cl)cc2-c2ccnc3c(C(=O)O)csc23)c(=O)c2c(C#N)cc(C(F)(F)F)cc21 [compound 353] | 50 to 1000 | 101
Cc1nc2cc(C(F)(F)F)cc(C#N)c2c(=O)n1CCOc1[nH]c(=O)c(Cl)cc1-c1ccnc2c(C(=O)O)csc12 [compound 356] | > 1000 | 1220
Cc1nc2c(OC(F)F)ccc(C#N)c2c(=O)n1CCOc1ccc(Cl)cc1-c1ccnc2c(C(=O)O)csc12 [compound 359] | < 50 | 48.9
Cc1c(CCOc2ccc(Cl)cc2-c2ccnc3c(C(=O)O)csc23)c(=O)c2c(C#N)cc(C(F)(F)F)cc2n1CCF [compound 362] | 50 to 1000 | 72.2
Cc1cc(-c2cc(Cl)ccc2OCCn2c(C)nc3c(C)c(C(F)(F)F)cc(C#N)c3c2=O)c2scc(C(=O)O)c2n1 [compound 364] | 50 to 1000 | 107
Cc1cc(-c2cc(Cl)ccc2OCCn2c(C)nc3cc(F)c(CN4CCN(C)CC4)c(C#N)c3c2=O)c2scc(C(=O)O)c2n1 [compound 366] | < 50 | 6.66
Cc1cc(-c2cc(Cl)ccc2OCCn2c(C)nc3cc(F)c(CN4CCOCC4)c(C#N)c3c2=O)c2scc(C(=O)O)c2n1 [compound 367] | < 50 | 2.87
Cc1cc(-c2cc(Cl)ccc2OCCn2c(C)nc3cc(CN(C)C)c(OC(C)C)c(C#N)c3c2=O)c2scc(C(=O)O)c2n1 [compound 370] | < 50 | 12.1
Cc1cc(-c2cc(Cl)ccc2OCCn2c(C)nc3ccc(OC(C)C)c(C#N)c3c2=O)c2scc(C(=O)O)c2n1 [compound 371] | < 50 | 20
Cc1cc(-c2cc(Cl)ccc2OCCn2c(C)nc3c(C(F)F)ncc(C#N)c3c2=O)c2scc(C(=O)O)c2n1 [compound 372] | < 50 | 7.34
Cc1cc(-c2cc(Cl)ccc2OCCn2c(C)nc3cc(C(F)(F)F)c(C4=CCN(C)CC4)c(C#N)c3c2=O)c2scc(C(=O)O)c2n1 [compound 373] | < 50 | 6.43
Cc1nc2cc(C(F)(F)F)c(CC3CN(CC(F)F)C3)c(C#N)c2c(=O)n1CCOc1ccc(Cl)cc1-c1ccnc2c(C(=O)O)csc12 [compound 376] | < 50 | 12.7
Cc1nc2cc(C(F)(F)F)c(N3CCN(CC(F)F)CC3)c(C#N)c2c(=O)n1CCOc1ccc(Cl)cc1-c1cccc(C(=O)O)c1 [compound 377] | 50 to 1000 | 61.2
CC(=O)N1CCN(c2c(C(F)(F)F)cc3nc(C)n(CCOc4ccc(Cl)cc4-c4cccc(C(=O)O)c4)c(=O)c3c2C#N)CC1 [compound 378] | < 50 | 45.1

Now from value to compound:

IC50 [1] [nM] | IC50 [2] [nM] | Compound
< 50 | 43.7 | Cc1nc2cc(C(F)(F)F)cc(C#N)c2c(=O)n1CCOc1ccc(Cl)cc1-c1cccc2c1S(=O)(=O)C=C2C(=O)O [compound 327]
< 50 | 47.7 | CCc1cc(-c2cc(Cl)ccc2OCCn2c(C)nc3cc(C(F)(F)F)cc(C#N)c3c2=O)c2scc(C(=O)O)c2n1 [compound 330]
50 to 1000 |  | Cc1cc(-c2cc(Cl)ccc2OCCn2c(C)nc3cc4c(c(C#N)c3c2=O)CCN(C)C4)c2scc(C(=O)O)c2n1 [compound 335]
< 50 | 45.3 | CCc1ncc(C#N)c2c(=O)n(CCOc3ccc(Cl)cc3-c3cc(C)nc4c(C(=O)O)csc34)c(C)nc12 [compound 338]
< 50 | 32.1 | Cc1cc(-c2cc(Cl)ccc2OCCn2c(C)nc3cc(C(F)(F)F)c(-c4ccncc4F)c(C#N)c3c2=O)c2scc(C(=O)O)c2n1 [compound 344]
< 50 | 15.4 | Cc1cc(-c2cc(Cl)ccc2OCCn2c(C)nc3cc(C(F)(F)F)c(-c4ccns4)c(C#N)c3c2=O)c2scc(C(=O)O)c2n1 [compound 348]
50 to 1000 | 146 | CN1c2cc(C(F)(F)F)cc(C#N)c2C(=O)N(CCOc2ccc(Cl)cc2-c2ccnc3c(C(=O)O)csc23)C1(C)C [compound 355]
50 to 1000 | 86.3 | Cc1nc2c(C(F)(F)F)ccc(C#N)c2c(=O)n1CCOc1ccc(Cl)cc1-c1ccnc2c(C(=O)O)csc12 [compound 358]
< 50 | 42.6 | Cc1nc2c(C(F)F)ccc(C#N)c2c(=O)n1CCOc1ccc(Cl)cc1-c1ccnc2c(C(=O)O)csc12 [compound 360]
50 to 1000 | 68.4 | Cc1c(CCOc2ccc(Cl)cc2-c2ccnc3c(C(=O)O)csc23)c(=O)c2c(C#N)c(Cl)c(C(F)(F)F)cc2n1C [compound 361]
< 50 | 22.8 | Cc1cc(-c2cc(Cl)ccc2OCCn2c(C)nc3cc(C(F)(F)F)c(C)c(C#N)c3c2=O)c2scc(C(=O)O)c2n1 [compound 363]
< 50 | 19 | Cc1cc(-c2cc(Cl)ccc2OCCn2c(C)nc3cnc(CCN(C)C)c(C#N)c3c2=O)c2scc(C(=O)O)c2n1 [compound 365]
< 50 | 41.1 | Cc1cc(-c2cc(Cl)ccc2OCCn2c(C)nc3cc(F)c(C)c(C#N)c3c2=O)c2scc(C(=O)O)c2n1 [compound 368]
< 50 | 1.32 | COc1c(CN(C)C)cc2nc(C)n(CCOc3ccc(Cl)cc3-c3cc(C)nc4c(C(=O)O)csc34)c(=O)c2c1C#N [compound 369]
< 50 | 20.5 | Cc1nc2cc(C(F)(F)F)c(N3CCN(C)CC3)c(C#N)c2c(=O)n1CCOc1ccc(Cl)cc1-c1cccc(C(=O)O)c1 [compound 374]
50 to 1000 | 58 | Cc1cccc(-c2c(C(F)(F)F)cc3nc(C)n(CCOc4ccc(Cl)cc4-c4cccc(C(=O)O)c4)c(=O)c3c2C#N)n1 [compound 375]
